Measurements published in the supplement of paper PMC11451515.

System: NOMO1
Test: cell viability relative to DMSO control; higher = less cytotoxic
Details: 48 h
Outline: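 Three leukemia lines were tested: NOMO1 and SEM at 500 cells/well and P12-Ichikawa at 1000 cells/well. Each was adapted for at least four passages in each medium and seeded in 5 μl in 1536-well plates, and library compounds in DMSO were pin-dosed from 47 μM to 0.79 nM in 11 threefold steps. After 48 h at 37°C, CellTiter-Glo One luminescence was read. Viability is a percentage relative to DMSO wells on each plate, with cell-free wells as background.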

[1] = HPLM + 10% dialyzed FBS, 0.000781 µM
[2] = HPLM + 10% dialyzed FBS, 0.00234 µM
[3] = HPLM + 10% dialyzed FBS, 0.00702 µM
[4] = HPLM + 10% dialyzed FBS, 0.0211 µM
[5] = HPLM + 10% dialyzed FBS, 0.0632 µM
[6] = HPLM + 10% dialyzed FBS, 0.19 µM
[7] = HPLM + 10% dialyzed FBS, 0.569 µM
[8] = HPLM + 10% dialyzed FBS, 1.71 µM
[9] = HPLM + 10% dialyzed FBS, 5.12 µM
[10] = HPLM + 10% dialyzed FBS, 15.4 µM
[11] = HPLM + 10% dialyzed FBS, 46.1 µM
[12] = RPMI 5 mM glucose + 10% FBS, 0.000781 µM
[13] = RPMI 5 mM glucose + 10% FBS, 0.00234 µM
[14] = RPMI 5 mM glucose + 10% FBS, 0.00702 µM
[15] = RPMI 5 mM glucose + 10% FBS, 0.0211 µM
[16] = RPMI 5 mM glucose + 10% FBS, 0.0632 µM
[17] = RPMI 5 mM glucose + 10% FBS, 0.19 µM
[18] = RPMI 5 mM glucose + 10% FBS, 0.569 µM
[19] = RPMI 5 mM glucose + 10% FBS, 1.71 µM
[20] = RPMI 5 mM glucose + 10% FBS, 5.12 µM
[21] = RPMI 5 mM glucose + 10% FBS, 15.4 µM
[22] = RPMI 5 mM glucose + 10% FBS, 46.1 µM
[23] = RPMI 5 mM glucose + 10% dialyzed FBS, 0.000781 µM
[24] = RPMI 5 mM glucose + 10% dialyzed FBS, 0.00234 µM
[25] = RPMI 5 mM glucose + 10% dialyzed FBS, 0.00702 µM
[26] = RPMI 5 mM glucose + 10% dialyzed FBS, 0.0211 µM
[27] = RPMI 5 mM glucose + 10% dialyzed FBS, 0.0632 µM
[28] = RPMI 5 mM glucose + 10% dialyzed FBS, 0.19 µM
[29] = RPMI 5 mM glucose + 10% dialyzed FBS, 0.569 µM
[30] = RPMI 5 mM glucose + 10% dialyzed FBS, 1.71 µM
[31] = RPMI 5 mM glucose + 10% dialyzed FBS, 5.12 µM
[32] = RPMI 5 mM glucose + 10% dialyzed FBS, 15.4 µM
[33] = RPMI 5 mM glucose + 10% dialyzed FBS, 46.1 µM

| Compound | cell viability [1] | cell viability [2] | cell viability [3] | cell viability [4] | cell viability [5] | cell viability [6] | cell viability [7] | cell viability [8] | cell viability [9] | cell viability [10] | cell viability [11] | cell viability [12] | cell viability [13] | cell viability [14] | cell viability [15] | cell viability [16] | cell viability [17] | cell viability [18] | cell viability [19] | cell viability [20] | cell viability [21] | cell viability [22] | cell viability [23] | cell viability [24] | cell viability [25] | cell viability [26] | cell viability [27] | cell viability [28] | cell viability [29] | cell viability [30] | cell viability [31] | cell viability [32] | cell viability [33] |
| --- | --- | --- | --- | --- | --- | --- | --- | --- | --- | --- | --- | --- | --- | --- | --- | --- | --- | --- | --- | --- | --- | --- | --- | --- | --- | --- | --- | --- | --- | --- | --- | --- | --- |
| c1ccc(-c2nn3c(c2-c2ccnc4cc(OCCN5CCOCC5)ccc24)CCC3)nc1 | 122% | 126% | 113% | 129% | 133% | 119% | 124% | 108% | 117% | 96.1% | 70.6% | 86% | 99.6% | 107% | 105% | 111% | 108% | 108% | 99.2% | 97.8% | 91.3% | 91.7% | 66.2% | 116% | 102% | 108% | 106% | 108% | 109% | 101% | 98.5% | 92.8% | 83.4% |
| C[C@@]12OC(=O)[C@@]1(NC(=O)[C@@H]2CCCl)[C@@H](O)[C@H]\3CCC\C=C3 | 109% | 114% | 104% | 104% | 97.9% | 51.4% | 9.1% | 6.95% | 4.84% | 2.62% | 1.53% | 86.2% | 94.4% | 104% | 103% | 100% | 66.2% | 11% | 6.39% | 7.27% | 3.01% | 1.15% | 90.2% | 110% | 106% | 96.8% | 102% | 62.7% | 11% | 5.88% | 4.34% | 2.85% | 1.4% |
| CCOc1cc2c(c(F)c1OCC)C(=N)N(CC(=O)c1cc(N3CCOCC3)c(OC)c(C(C)(C)C)c1)C2 | 98.4% | 121% | 118% | 138% | 115% | 148% | 131% | 125% | 142% | 127% | 118% | 109% | 112% | 104% | 109% | 130% | 108% | 123% | 121% | 122% | 135% | 126% | 113% | 122% | 121% | 129% | 131% | 124% | 124% | 139% | 141% | 138% | 130% |
| CC(C)c1ccc2oc3nc(N)c(C(=O)O)cc3c(=O)c2c1 |  |  |  |  |  |  |  |  |  |  |  | 121% | 121% | 128% | 137% | 136% | 128% | 123% | 134% | 133% | 130% | 122% |  |  |  |  |  |  |  |  |  |  |  |
| COC1=CC=C(C=C1)C/2=C/OC3=CC(=CC=C3C2=O)O | 108% | 125% | 114% | 119% | 116% | 119% | 119% | 109% | 83.1% | 67.9% | 43.1% | 123% | 111% | 121% | 115% | 132% | 114% | 106% | 118% | 102% | 101% | 71.1% | 122% | 120% | 113% | 106% | 133% | 121% | 101% | 105% | 111% | 104% | 98.4% |
| c1ccc2c(Oc3nc(Nc4ccc(N5CCOCC5)cc4)c4ncn(C5CCCCC5)c4n3)cccc2c1 |  |  |  |  |  |  |  |  |  |  |  | 113% | 117% | 129% | 127% | 126% | 133% | 131% | 149% | 132% | 153% | 136% | 102% | 121% | 126% | 143% | 125% | 146% | 139% | 127% | 123% | 124% | 135% |
| CC1=C2N=C([NH]C2=CC(=C1)N3CCOCC3)\C4=C(NC[C@@H](O)C5=CC=CC(=C5)Cl)\C=C/NC4=O | 86.2% | 100% | 105% | 99.8% | 98.4% | 92.8% | 79.3% | 65.4% | 61.2% | 44.2% | 44.7% | 104% | 103% | 109% | 99.1% | 95.7% | 108% | 89.8% | 73.7% | 68.9% | 65.3% | 57.4% | 99.6% | 101% | 90.4% | 91.9% | 96% | 87.6% | 72.8% | 67.1% | 53.6% | 57.2% | 49.1% |
| CC1(C)O[C@H]2CC(=O)OC[C@]23[C@H]2CC[C@@]4(C)[C@H](c5ccoc5)OC(=O)[C@H]5O[C@]54[C@]2(C)C(=O)C[C@@H]13 | 114% | 91.3% | 98.8% | 84.5% | 99.4% | 110% | 99.2% | 115% | 114% | 103% | 87.7% | 96.8% | 89.8% | 93.7% | 96.1% | 101% | 105% | 98.9% | 108% | 98.4% | 103% | 97.8% | 87.2% | 95.7% | 83% | 101% | 102% | 98.5% | 96.7% | 110% | 99.1% | 109% | 98% |
| N#Cc1c(C2CCNCC2)cc(-c2c(O)cccc2OCC2CC2)nc1N | 110% | 116% | 126% | 115% | 103% | 113% | 121% | 104% | 105% | 90.1% | 99.1% | 102% | 115% | 104% | 118% | 111% | 104% | 113% | 102% | 93.6% | 88.4% | 80.9% | 115% | 101% | 117% | 116% | 111% | 105% | 117% | 104% | 94.2% | 88.3% | 74.4% |
| CN(C)[C@H]\1[C@@H]2[C@@H](O)[C@@H]\3C(=C)C4=C(C(=CC=C4)O)C(=O)C3=C(\O)[C@@]2(O)C(=O)\C(=C1O)C(N)=O | 130% | 120% | 122% | 128% | 135% | 110% | 111% | 127% | 103% | 107% | 121% |  |  |  |  |  |  |  |  |  |  |  | 127% | 119% | 121% | 121% | 116% | 112% | 121% | 125% | 111% | 124% | 123% |
| CC1(C)CC(=O)c2c(C(F)(F)F)nn(-c3ccc(C(N)=O)c(NC4CCC(OC(=O)CN)CC4)c3)c2C1 (stereo unspecified) | 94.8% | 92.8% | 104% | 99% | 102% | 84.5% | 27.3% | 17.8% | 13.5% | 17.5% | 15.7% | 92.5% | 110% | 92.4% | 92.9% | 84.2% | 88.9% | 20.6% | 11.2% | 9.75% | 9.88% | 11.1% | 94.4% | 103% | 109% | 93.2% | 89.2% | 76% | 21.3% | 15.8% | 13.4% | 14.1% | 15.9% |
| COc1ccc(-c2c(-c3ccc(O)cc3O)n[nH]c2C)cc1 | 108% | 115% | 105% | 115% | 126% | 117% | 104% | 123% | 83% | 102% | 59% | 89% | 98.4% | 105% | 101% | 100% | 113% | 105% | 111% | 106% | 102% | 90.3% | 91% | 98% | 102% | 124% | 113% | 110% | 121% | 99.1% | 109% | 99.1% | 77.1% |
| OC1=C(C=CC=C1)C2=CC=C(C=C2)C3=CSC4=C3C(=C(/C#N)C(=O)N4)/O | 119% | 119% | 120% | 102% | 112% | 110% | 119% | 118% | 126% | 105% | 102% |  |  |  |  |  |  |  |  |  |  |  | 117% | 123% | 131% | 139% | 122% | 112% | 122% | 119% | 114% | 123% | 109% |
| C[C@H]1CCC/C=C/C2C[C@H](O)C[C@H]2[C@H](O)/C=C/C(=O)O1 (stereo partly specified) | 4.93% | 15.8% | 26.7% | 7.07% | 5.05% | 5.57% | 5.16% | 4.43% | 3.51% | 3.39% | 2.94% | 5.4% | 7% | 5.78% | 5.27% | 5.07% | 4.51% | 4.27% | 3.98% | 1.66% | 1.88% | 3.46% | 79.5% | 6.02% | 10% | 5.74% | 4.22% | 4.83% | 4.29% | 3.43% | 2.6% | 2.61% | 2.61% |
| O=C(C1CCCCC1)N1CC(=O)N2CCc3ccccc3C2C1 (stereo unspecified) | 106% | 147% | 125% | 125% | 126% | 130% | 140% | 110% | 108% | 107% | 114% |  |  |  |  |  |  |  |  |  |  |  |  |  |  |  |  |  |  |  |  |  |  |
| CNC(=O)c1c(F)cccc1Nc1nc(Nc2cc3c(cc2OC)CCN3C(=O)CN(C)C)nc2[nH]ccc12 | 89.3% | 118% | 99.9% | 122% | 111% | 88.7% | 87.2% | 76.5% | 58.8% | 62% | 6.14% | 110% | 118% | 128% | 106% | 112% | 117% | 115% | 113% | 116% | 117% | 27.7% | 107% | 111% | 105% | 126% | 117% | 112% | 108% | 103% | 99.2% | 102% | 23.6% |
